Measurements: the NIST ThermoML archive (doi:10.1021/je700260f)
Numbers after ± are expanded uncertainties.

Settings: Liquid, Vibrating tube method

FC(C(F)(F)F)C(F)(F)F [1,1,1,2,3,3,3-heptafluoropropane]
Settings | mass density [kg/m3]
313.15 K, 33848 kPa | 1503.2 ± 1.7
313.15 K, 33888 kPa | 1503.3 ± 1.7
313.15 K, 33928 kPa | 1503.5 ± 1.7
313.15 K, 33981 kPa | 1503.8 ± 1.7
313.15 K, 34027 kPa | 1503.8 ± 1.7
313.15 K, 34060 kPa | 1503.9 ± 1.7
313.15 K, 34100 kPa | 1504 ± 1.7
313.15 K, 34136 kPa | 1504.1 ± 1.7
313.15 K, 34171 kPa | 1504.4 ± 1.7
313.15 K, 34201 kPa | 1504.5 ± 1.7
313.15 K, 34232 kPa | 1504.6 ± 1.7
313.15 K, 34269 kPa | 1504.6 ± 1.7
313.15 K, 34305 kPa | 1504.8 ± 1.7
313.15 K, 34336 kPa | 1504.7 ± 1.7
313.15 K, 34374 kPa | 1505 ± 1.7
313.15 K, 34408 kPa | 1505.1 ± 1.7
313.15 K, 34430 kPa | 1505.2 ± 1.7
313.15 K, 34451 kPa | 1505.2 ± 1.7
313.15 K, 34461 kPa | 1505.2 ± 1.7
313.15 K, 34473 kPa | 1505.2 ± 1.7
313.15 K, 34482 kPa | 1505.4 ± 1.7
313.15 K, 34489 kPa | 1505.4 ± 1.7
313.16 K, 1420 kPa | 1328.8 ± 1.5
313.16 K, 1448 kPa | 1329.3 ± 1.5
313.16 K, 9648 kPa | 1395.4 ± 1.5
313.16 K, 9676 kPa | 1395.6 ± 1.5
313.16 K, 9701 kPa | 1395.7 ± 1.5
313.16 K, 9733 kPa | 1395.9 ± 1.5
313.16 K, 9768 kPa | 1396.1 ± 1.5
313.16 K, 9796 kPa | 1396.4 ± 1.5
313.16 K, 10034 kPa | 1397.9 ± 1.5
313.16 K, 11599 kPa | 1407.5 ± 1.5
313.16 K, 11650 kPa | 1407.8 ± 1.5
313.16 K, 16202 kPa | 1432.4 ± 1.6
313.16 K, 16267 kPa | 1432.9 ± 1.6
313.16 K, 16535 kPa | 1434.1 ± 1.6
313.16 K, 16676 kPa | 1434.8 ± 1.6
313.16 K, 16775 kPa | 1435.3 ± 1.6
313.16 K, 21124 kPa | 1455.4 ± 1.6
313.16 K, 21173 kPa | 1455.5 ± 1.6
313.16 K, 23260 kPa | 1464.4 ± 1.6
313.16 K, 23309 kPa | 1464.6 ± 1.6
313.16 K, 23346 kPa | 1464.7 ± 1.6
313.16 K, 25084 kPa | 1471.9 ± 1.6
313.16 K, 25125 kPa | 1471.9 ± 1.6
313.16 K, 25173 kPa | 1472.1 ± 1.6
323.13 K, 960 kPa | 1272.4 ± 1.5
323.13 K, 990 kPa | 1272.7 ± 1.5
323.13 K, 1310 kPa | 1277.3 ± 1.5
323.13 K, 1540 kPa | 1280.5 ± 1.5
323.13 K, 1600 kPa | 1281.2 ± 1.5
323.13 K, 1800 kPa | 1283.9 ± 1.5
323.13 K, 1820 kPa | 1284.2 ± 1.5
323.13 K, 1840 kPa | 1284.5 ± 1.5
323.13 K, 2040 kPa | 1287.1 ± 1.5
323.13 K, 2060 kPa | 1287.3 ± 1.5
323.13 K, 2080 kPa | 1287.6 ± 1.5
323.13 K, 2100 kPa | 1287.9 ± 1.5
323.13 K, 2120 kPa | 1288.2 ± 1.5
323.13 K, 2140 kPa | 1288.3 ± 1.5
323.13 K, 2160 kPa | 1288.7 ± 1.5
323.13 K, 2180 kPa | 1288.9 ± 1.5
323.13 K, 2190 kPa | 1289.2 ± 1.5
323.13 K, 2220 kPa | 1289.2 ± 1.5
323.13 K, 2230 kPa | 1289.4 ± 1.5
323.13 K, 2250 kPa | 1289.8 ± 1.5
323.13 K, 2270 kPa | 1290 ± 1.5
323.13 K, 3000 kPa | 1298.9 ± 1.5
323.13 K, 3030 kPa | 1299.3 ± 1.5
323.13 K, 3090 kPa | 1299.8 ± 1.5
323.13 K, 3110 kPa | 1300.2 ± 1.5
323.13 K, 3130 kPa | 1300.3 ± 1.5
323.13 K, 3150 kPa | 1300.6 ± 1.5
323.13 K, 3180 kPa | 1300.8 ± 1.5
323.13 K, 3200 kPa | 1301.3 ± 1.5
323.13 K, 3230 kPa | 1301.4 ± 1.5
323.13 K, 3250 kPa | 1301.7 ± 1.5
323.13 K, 3270 kPa | 1301.9 ± 1.5
323.13 K, 3290 kPa | 1302.2 ± 1.5
323.13 K, 4770 kPa | 1317.9 ± 1.5
323.13 K, 4790 kPa | 1318.1 ± 1.5
323.13 K, 4820 kPa | 1318.3 ± 1.5
323.13 K, 4850 kPa | 1318.7 ± 1.5
323.13 K, 4880 kPa | 1318.9 ± 1.5
323.13 K, 4900 kPa | 1319.2 ± 1.5
323.13 K, 4920 kPa | 1319.4 ± 1.5
323.13 K, 6440 kPa | 1333.7 ± 1.5
323.13 K, 6489 kPa | 1334.1 ± 1.5
323.13 K, 6508 kPa | 1334 ± 1.5
323.13 K, 6533 kPa | 1334.5 ± 1.5
323.13 K, 6605 kPa | 1335.1 ± 1.5
323.13 K, 6623 kPa | 1335.3 ± 1.5
323.13 K, 6650 kPa | 1335.4 ± 1.5
323.13 K, 6668 kPa | 1335.7 ± 1.5
323.13 K, 6696 kPa | 1335.8 ± 1.5
323.13 K, 6716 kPa | 1336 ± 1.5
323.13 K, 6734 kPa | 1336.3 ± 1.5
323.13 K, 6759 kPa | 1336.4 ± 1.5
323.13 K, 7026 kPa | 1338.8 ± 1.5
323.14 K, 920 kPa | 1271.8 ± 1.5
323.14 K, 940 kPa | 1272.1 ± 1.5
323.14 K, 1020 kPa | 1273.1 ± 1.5
323.14 K, 1040 kPa | 1273.4 ± 1.5
323.14 K, 1060 kPa | 1273.7 ± 1.5
323.14 K, 1070 kPa | 1274.1 ± 1.5
323.14 K, 1090 kPa | 1274.2 ± 1.5
323.14 K, 1110 kPa | 1274.5 ± 1.5
323.14 K, 1130 kPa | 1274.7 ± 1.5
323.14 K, 1140 kPa | 1275.1 ± 1.5
323.14 K, 1170 kPa | 1275.4 ± 1.5
323.14 K, 1180 kPa | 1275.5 ± 1.5
323.14 K, 1200 kPa | 1275.9 ± 1.5
323.14 K, 1220 kPa | 1276 ± 1.5
323.14 K, 1240 kPa | 1276.4 ± 1.5
323.14 K, 1260 kPa | 1276.7 ± 1.5
323.14 K, 1290 kPa | 1276.9 ± 1.5
323.14 K, 1330 kPa | 1277.6 ± 1.5
323.14 K, 1350 kPa | 1277.8 ± 1.5
323.14 K, 1370 kPa | 1278.2 ± 1.5
323.14 K, 1390 kPa | 1278.3 ± 1.5
323.14 K, 1410 kPa | 1278.7 ± 1.5
323.14 K, 1420 kPa | 1278.8 ± 1.5
323.14 K, 1450 kPa | 1279.2 ± 1.5
323.14 K, 1470 kPa | 1279.6 ± 1.5
323.14 K, 1500 kPa | 1279.9 ± 1.5
323.14 K, 1520 kPa | 1280.1 ± 1.5
323.14 K, 1550 kPa | 1280.6 ± 1.5
323.14 K, 1580 kPa | 1281.1 ± 1.5
323.14 K, 1610 kPa | 1281.4 ± 1.5
323.14 K, 1630 kPa | 1281.6 ± 1.5
323.14 K, 1640 kPa | 1282 ± 1.5
323.14 K, 1670 kPa | 1282.1 ± 1.5
323.14 K, 1690 kPa | 1282.5 ± 1.5
323.14 K, 1710 kPa | 1282.7 ± 1.5
323.14 K, 1730 kPa | 1283.1 ± 1.5
323.14 K, 1750 kPa | 1283.3 ± 1.5
323.14 K, 1780 kPa | 1283.7 ± 1.5
323.14 K, 1860 kPa | 1284.7 ± 1.5
323.14 K, 1880 kPa | 1285 ± 1.5
323.14 K, 1900 kPa | 1285.3 ± 1.5
323.14 K, 1920 kPa | 1285.4 ± 1.5
323.14 K, 1940 kPa | 1285.8 ± 1.5
323.14 K, 1960 kPa | 1285.9 ± 1.5
323.14 K, 1980 kPa | 1286.3 ± 1.5
323.14 K, 2000 kPa | 1286.6 ± 1.5
323.14 K, 2020 kPa | 1286.8 ± 1.5
323.14 K, 2290 kPa | 1290.2 ± 1.5
323.14 K, 2310 kPa | 1290.6 ± 1.5
323.14 K, 2330 kPa | 1290.7 ± 1.5
323.14 K, 2350 kPa | 1291 ± 1.5
323.14 K, 2380 kPa | 1291.3 ± 1.5
323.14 K, 2390 kPa | 1291.5 ± 1.5
323.14 K, 2410 kPa | 1291.7 ± 1.5
323.14 K, 2430 kPa | 1291.9 ± 1.5
323.14 K, 2450 kPa | 1292.3 ± 1.5
323.14 K, 2480 kPa | 1292.4 ± 1.5
323.14 K, 2500 kPa | 1292.9 ± 1.5
323.14 K, 2530 kPa | 1293.2 ± 1.5
323.14 K, 2560 kPa | 1293.6 ± 1.5
323.14 K, 2570 kPa | 1293.8 ± 1.5
323.14 K, 2600 kPa | 1294 ± 1.5
323.14 K, 2610 kPa | 1294.3 ± 1.5
323.14 K, 2630 kPa | 1294.4 ± 1.5
323.14 K, 2650 kPa | 1294.8 ± 1.5
323.14 K, 2670 kPa | 1295 ± 1.5
323.14 K, 2830 kPa | 1296.9 ± 1.5
323.14 K, 2890 kPa | 1297.6 ± 1.5
323.14 K, 2920 kPa | 1297.7 ± 1.5
323.14 K, 2940 kPa | 1298.3 ± 1.5
323.14 K, 2960 kPa | 1298.4 ± 1.5
323.14 K, 2980 kPa | 1298.6 ± 1.5
323.14 K, 3060 kPa | 1299.4 ± 1.5
323.14 K, 3310 kPa | 1302.4 ± 1.5
323.14 K, 3340 kPa | 1302.7 ± 1.5
323.14 K, 3360 kPa | 1303 ± 1.5
323.14 K, 3380 kPa | 1303.3 ± 1.5
323.14 K, 3410 kPa | 1303.5 ± 1.5
323.14 K, 3440 kPa | 1303.9 ± 1.5
323.14 K, 3470 kPa | 1304.1 ± 1.5
323.14 K, 3480 kPa | 1304.3 ± 1.5
323.14 K, 3510 kPa | 1304.5 ± 1.5
323.14 K, 3530 kPa | 1304.8 ± 1.5
323.14 K, 3550 kPa | 1305 ± 1.5
323.14 K, 3570 kPa | 1305.4 ± 1.5
323.14 K, 3600 kPa | 1305.5 ± 1.5
323.14 K, 3640 kPa | 1306.1 ± 1.5
323.14 K, 3660 kPa | 1306.3 ± 1.5
323.14 K, 3680 kPa | 1306.5 ± 1.5
323.14 K, 3700 kPa | 1306.7 ± 1.5
323.14 K, 3720 kPa | 1307 ± 1.5
323.14 K, 3750 kPa | 1307.2 ± 1.5
323.14 K, 3770 kPa | 1307.5 ± 1.5
323.14 K, 3790 kPa | 1307.7 ± 1.5
323.14 K, 3810 kPa | 1308 ± 1.5
323.14 K, 3840 kPa | 1308.2 ± 1.5
323.14 K, 3860 kPa | 1308.5 ± 1.5
323.14 K, 3880 kPa | 1308.7 ± 1.5
323.14 K, 3900 kPa | 1309 ± 1.5
323.14 K, 3920 kPa | 1309.1 ± 1.5
323.14 K, 3950 kPa | 1309.4 ± 1.5
323.14 K, 3970 kPa | 1309.8 ± 1.5
323.14 K, 4000 kPa | 1309.9 ± 1.5
323.14 K, 4020 kPa | 1310.2 ± 1.5
323.14 K, 4040 kPa | 1310.3 ± 1.5
323.14 K, 4070 kPa | 1310.7 ± 1.5
